Results from publication PMC10531095, “Photonics of Some Monomethine Cyanine Dyes in Solutions and in Complexes with Biomolecules” (International Journal of Molecular Sciences, 2023).

Experiments:
dsDNA = assay: Flash photolysis: triplet state of MCD in the presence of dsDNA; design: species or system chick; conditions: for k1, decay rate constant of the T state (first exponent) / k2, decay rate constant of the T state (second exponent): two-exponential decay
Description: Upon direct flash photoexcitation of deoxygenated solutions of MCD 1–4, signals corresponding to triplet–triplet (T–T) absorption were not observed due to the low efficiency of intersystem crossing to the triplet (T) state, in comparison with competing processes of nonradiative deactivation of excited states of dye molecules, which is common for MCD [41]. Complexation with dsDNA hinders these competing processes, which leads to an increase in the quantum yield of the T state of MCD. In the presence of dsDNA, under direct photoexcitation, the signals of T states of MCD 1–3 were detected, and their different T–T absorption spectra were measured (Figure 10).
Quantum yields of intersystem crossing to the triplet state (ΦST) of MCD 1–3 in the presence of dsDNA were estimated by flash photolysis using optical actinometry (see Materials and Methods). The obtained values of ΦST for MCD 1–3 were 2.6 ± 0.4%, 5.7 ± 0.8%, and 10.7 ± 1.5%, respectively.
The spectral–kinetic characteristics of the T state of MCD were studied by flash photolysis. The experiment was carried out on a setup with excitation by a xenon lamp (lamp flash energy ~50 J, duration τ1/2 = 10 μs). When registering T states, the solutions were deoxygenated using a vacuum setup. The manometric unit was used to determine the air pressure in a series of experiments on T state quenching by dissolved oxygen. The T state of MCD 4 in PBS solution in the presence of dsDNA was obtained by energy transfer from the triplet level of sodium naphthalene-2-sulfonate (ET~21,000 cm^−1 [83]). The quantum yields of T states (ΦT) of the dyes in the presence of dsDNA were estimated actinometrically. Dyes with known ΦT were used as actinometers: the xanthene dye Acid Red 87 (ΦT = 0.8 (aq); [84]) and the cyanine dye 3,3′-diethyl-9-methoxythiacarbocyanine iodide (ΦT = 0.16–0.20 in n-propanol; [85]).

[1] = biological target: T1, human serum albumin (HSA) (Homo sapiens, UniProt P02768); assay: Spectral fluorescent titration of the dyes with HSA in PBS; format: binding; conditions: for nSc, stoichiometric coefficient (Scatchard): HSA (nSc = 1 taken for HSA); for KeffBH, effective complexation constant (Benesi–Hildebrand): fluorescent titration; for αb, proportion of bound dye: cbiomol = 5 × 10^−5 mol L^−1; for Fmax/F0, fluorescence growth at 100% binding: from the Benesi–Hildebrand dependence; for K2Sc, complexation constant (Scatchard): nSc = 1; for φfl^b, fluorescence quantum yield of the dye in the presence of biopolymer: cHSA~5 × 10^−5 mol L^−1; for LOD: detection of HSA; for LOQ: quantification of HSA
T1 construct: purchased Sigma-Aldrich
T1 sequence (P02768 25-609): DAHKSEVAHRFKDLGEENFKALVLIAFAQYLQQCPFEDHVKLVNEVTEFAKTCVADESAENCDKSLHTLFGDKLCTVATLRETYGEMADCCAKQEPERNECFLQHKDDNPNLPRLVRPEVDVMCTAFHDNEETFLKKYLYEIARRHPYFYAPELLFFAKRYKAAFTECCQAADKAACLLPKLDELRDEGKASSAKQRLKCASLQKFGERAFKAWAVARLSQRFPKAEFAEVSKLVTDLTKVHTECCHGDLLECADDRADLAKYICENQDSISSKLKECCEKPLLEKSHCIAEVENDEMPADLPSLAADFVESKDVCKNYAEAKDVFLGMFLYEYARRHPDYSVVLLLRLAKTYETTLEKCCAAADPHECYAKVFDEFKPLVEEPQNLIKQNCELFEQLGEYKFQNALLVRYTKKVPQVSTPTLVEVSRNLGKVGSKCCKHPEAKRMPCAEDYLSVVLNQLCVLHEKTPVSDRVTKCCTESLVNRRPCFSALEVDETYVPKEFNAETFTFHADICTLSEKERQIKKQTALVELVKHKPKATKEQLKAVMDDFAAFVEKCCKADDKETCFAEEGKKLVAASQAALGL
Description: Complexation of MCD 1–4 with DNA (double-stranded and single-stranded) and with human serum albumin (HSA) was studied by spectral fluorescent methods in a wide range of biopolymer concentrations (cdsDNA = 0–1.5 × 10^−4 mol L^−1; cssDNA = 0–1.4 × 10^−4 mol L^−1; cHSA = 0–1.4 × 10^−4 mol L^−1 in PBS buffer). The absorption, fluorescence, and fluorescence excitation spectra of MCD 1 and 3 in the presence of dsDNA are shown in Figure 3 and Figure 4, respectively.
The complication of chemical equilibrium, and the variety of interactions between MCD and biopolymer (dye aggregation/deaggregation, the possibility of forming complexes of several types with DNA/HSA) makes it problematic to determine the exact values of the complexation constants of the dyes with DNA. The values of the effective equilibrium constants of the complexation reaction of MCD with biopolymers (Keff, L mol^−1, see Table 7) were estimated from spectral fluorescent data. In this case, we had to assume a simple equilibrium MCD (monomer, free) ⇄ MCD (monomer, bound). For these purposes, we used the Benesi–Hildebrand [59], Hill, and Scatchard formalisms (See Supplementary Materials, Equations (S9)–(S13)). For dsDNA, fitting according to the modified Scatchard equation was carried out assuming one dye molecule per one DNA turn (K1Sc at nSc = const = 10 b.p.), as well as varying both the constant (K2Sc) and the stoichiometric coefficient (nSc). In the case of ssDNA, nSc is given per one base; for HSA, nSc = 1.
Distilled water, 0.01 M aqueous phosphate buffer saline solution (PBS; pH 7.4, containing 0.137 M NaCl and 0.0027 M KCl), ethanol, benzyl alcohol, isopentyl alcohol, acetonitrile, DMSO, 1,4-dioxane, chloroform, DMSO, acetone, methyl ethyl ketone, ethyl acetate (all analytical grade). Commercial chick erythrocyte DNA (Reanal, Budapest, Hungary) and human serum albumin (HSA, Sigma-Aldrich, St. Louis, MO, USA) were used.
Absorption spectra were recorded on an SF-2000 spectrophotometer (Experimental-Construction Company “Spectrum”, St. Petersburg, Russia); fluorescence and fluorescence excitation spectra were recorded on a Fluorat-02-Panorama spectrofluorimeter (Group of Companies “Lumex”, St. Petersburg, Russia). The fluorescence and fluorescence excitation spectra were corrected for the spectral characteristics of the instrument (excitation channel signal) and sample transmission. Changes in the intrinsic fluorescence of HSA upon binding of MCD (in the presence of the dyes) were recorded in the synchronous fluorescence scanning (SFS) mode. In SFS mode, when registering spectra, a fixed difference Δλ= λfl − λex is maintained for the channels of excitation and registration. Synchronous scanning spectra were obtained at Δλ = 15 nm (fluorescence of tyrosine residues in the HSA molecule) and Δλ = 60 nm (fluorescence of tryptophan). The spectra were measured in 1 cm quartz semi-micro cells (Bio-Rad, Hercules, CA, USA).
The equilibrium constants of MCD complexation with biomolecules (Ka, L mol^−1) were obtained from fluorescence spectra using the Benesi–Hildebrand [59], Hill, and Scatchard equations [61] (see Supplementary Materials, Equations (S9)–(S13)). Limits of detection (LOD) and quantification (LOQ) of biomolecules were determined from concentration plots of MCD fluorescence intensities (see Supplementary Materials, Equations (S14) and (S15)). […]
1. Spectral‐Fluorescent Titration
In experiments on spectral‐fluorescence titration, MCD 1–4 were dosed from their concentrated st ock solutions in EtOH. Microvolumes (~0.5–5 μL) were dosed into the measuring cell (dilution 1:500 – 1:1000). […]
Measurements of the intrinsic fluorescence of HSA in the presence of MCD were carried out at a constant concentration of HSA (cHSA ~ 2.0 × 10–5 mol L–1) by titration with increasing concentrations of dyes. After stirring, the absorption and fluorescence spectra of the dyes were recorded several times. […]

Structure (SMILES) | k1, decay rate constant of the T state (first exponent) (dsDNA) | k2, decay rate constant of the T state (second exponent) (dsDNA) | LR, linear portion of fluorescence intensity vs. concentration plot ([1]; HSA) | nHill, Hill coefficient ([1]; HSA) | nSc, stoichiometric coefficient (Scatchard) [1] | KeffHill, effective complexation constant (Hill) ([1]; HSA, PBS buffer) | KeffBH, effective complexation constant (Benesi–Hildebrand) ([1]; HSA, PBS buffer) | αb, proportion of bound dye ([1]; HSA) | Fmax/F0, fluorescence growth at 100% binding ([1]; HSA) | K2Sc, complexation constant (Scatchard) ([1]; HSA) | φfl^b, fluorescence quantum yield of the dye in the presence of biopolymer [1] | LOD [1] | LOQ [1] | further results
CC[N+](CC)(CC)CCC[n+]1ccc(/C=C2\Sc3ccccc3N2C)c2ccc(O)cc21 [MCD 1] | ~ 9.9 × 10^3 s^−1 | ~2000 s⁻¹ | 0–0.6 ^3 µmol L^−1 | 0.89 | 1 | 3350 L/mol | 8000 L/mol | 27% | 65 | 7300 L/mol | ~1 ± 0.1% | 270 nM | 890 nM | lower sensitivity to HSA than to dsDNA ([1]; HSA versus dsDNA): about 37 times; εf/εb, relative change in molar extinction coefficient on complexation ([1]; HSA, PBS buffer): 1.59; hypochromia of the absorption band ([1]; cHSA = 2.5 × 10^−7 mol L^−1): ~ 25%; hypochromia of the absorption band ([1]; cHSA~9 × 10^−6 mol L^−1, crel(HSA) = 3): ~ 36%
CCN1/C(=C/c2ccc3ccccc3[n+]2CC)C=Cc2ccccc21 [MCD 4] | – | – | 0.7–7.5 ^2 µmol L^−1 | 0.61 | 1 | 1830 L/mol | 4820 L/mol | 20% | 109 | 17000 L/mol | ~0.5 ± 0.1% | 730 nM | 2200 nM | τT, lifetime of the T state (dsDNA): ~ 0.03 ms; drop in the apparent extinction coefficients ([1]; interaction with HSA): 1.5–2 fold
CCN1/C(=C/c2sc3ccccc3[n+]2CC)Sc2ccccc21 [MCD 3] | ~ 1.3 × 10^4 s^−1 | ~ 4 × 10^3 s^−1 | 0 to 1 µmol/L | 0.59 | 1 | 27800 L/mol | 17600 L/mol | 50% | 26 | 34000 L/mol | 50% | 77 nM | 230 nM | kqO2, rate constant of triplet state quenching by dissolved oxygen (dsDNA; main (short-lived) component): 3.6e+08 M⁻¹ s⁻¹; φfl^b, fluorescence quantum yield of the dye in the presence of biopolymer ([1]; listed as 3): ~50 ± 6%
